Source: US20030118594A1, “STABLE FORMULATIONS OF MHC-PEPTIDE COMPLEXES” (priority 1995, published 2003)
Where two headings read alike, the source gives them in different places.

Assays:
[1] = system: T-cells; test: Toxicity of detergents to T-cells; format: cell-based
Method: A number of detergents were studied for their ability to solubilize human HLA-DR2 and MHC-peptide complexes. In addition the complexes prepared in the detergents were assayed for activity. A summary of structural and physical characteristics of various detergents used for solubilization of HLA-DR2 is presented in FIG. 1.

[2] = Aggregation assay by size-exclusion HPLC and SDS-PAGE; format: physicochemical; details: DM concentration below 0.05%, FIG. 4, 5
Method: Three non-ionic detergents (DM, OG, and Tween-80) were tested. The experiments were carried out as generally described in U.S. Pat. Nos. 5,130,297, 5,194,425, 5,260,422 and 5,284,935, all of which are incorporated herein by reference. Briefly, HLA-DR2 was purified from EBV-transformed lymphoblastoid cells [GM03107] obtained from the National Institute of General Medical Sciences human genetic mutant cell repository (Corinell Institute of Medical Research, NJ.). A triton X-100 cell lysate was prepared and applied to a L243 coupled sepharose-4B column and the bound DR2 was eluted in phosphate buffer containing 0.05% n-dodecyl β-D-maltoside (DM) detergent at pH 11.3. Fractions were immediately neutralized with 20% monobasic phosphate and the DR2 pool was collected through a DEAE ion exchange column in 20 mM phosphate buffer containing 0.5 M NaCl and 0.05% DM, pH 6.0. The flow through purified protein solution from the DEAE column was neutralized with 10% tribasic sodium phosphate, filtered through a 180 kD membrane and concentrated to 1 mg/ml. The final DR2 preparation was characterized by 13.5% SDS polyacrylamide gel electrophoresis followed by silver staining.
To prepare the DR2-peptide complex, purified DR2 was dialyzed against 100 mM citrate buffer pH 6.0 containing 0.05% DM for 24 hours at 4° C. prior to the addition of MBP(83-102)Y^83 peptide. […]

[3] = system: HLA-DR2; test: Occupancy of MHC molecules with peptide (loading); format: binding, human; details: DR2 and MBP(83-102)Y^83 complexes prepared in the named detergent
Method: To prepare the DR2-peptide complex, purified DR2 was dialyzed against 100 mM citrate buffer pH 6.0 containing 0.05% DM for 24 hours at 4° C. prior to the addition of MBP(83-102)Y^83 peptide. The reaction mixture was incubated at 37° C. for 96 hours and free peptide was removed by Sephacryl S200 gel filtration.
As noted in the figure, the occupancy of the MHC molecules (i.e., proportion of the molecules complexed with peptide) was 90% in DM, 40% in octylglucoside and 76% in Tween-80).

[4] = system: mouse; test: GLP Toxicology: Acute Range-finding; format: in vivo; details: i.v., 400 ug/kg, bolus
Method: (§1) Safety and toxicity studies were carried out for the intravenous administration of dodecyl-β-D-maltoside in various animal models.

[5] = system: mouse; test: GLP Toxicology: Subacute - full histo; format: in vivo; details: i.v., QD14
Method: as §1

[6] = system: mouse; test: Safety Pharmacology: Neuropharm profile; format: in vivo; details: i.v., bolus
Method: as §1

[7] = system: rat; test: Safety Pharmacology: Diuretic Assay; format: in vivo; details: i.v., bolus
Method: as §1

[8] = system: mouse; test: Safety Pharmacology: Barbit Sleep Potent; format: in vivo; details: i.v., bolus
Method: as §1

[9] = system: dog; test: Safety Pharmacology: Cardiovasc Effects; format: in vivo; details: i.v.
Method: as §1

[10] = system: various animal models; test: Safety and toxicity studies, intravenous administration in various animal models; format: in vivo; details: i.v. administration at various tested doses, summary of Table 1
Method: as §1

## C[C@H](CCC(=O)NCCC[N+](C)(C)CCCS(=O)(=O)[O-])[C@H]1CC[C@H]2[C@@H]3[C@H](O)C[C@@H]4C[C@H](O)CC[C@]4(C)[C@H]3C[C@H](O)[C@]12C [CHAPS]
[1]; detergents for solubilization of HLA-DR2
  toxicity to T-cells: toxic to T-cells

## CCCCCCCCCCCCO[C@@H]1O[C@H](CO)[C@@H](O[C@H]2O[C@H](CO)[C@@H](O)[C@H](O)[C@H]2O)[C@H](O)[C@H]1O [DM, dodecyl β-D maltoside]
[2]
  aggregation level of DR2: increased aggregation level of DR2
[3]
  occupancy of the MHC molecules (proportion of the molecules complexed with peptide): 90%
[4]
  Results, Acute Range-finding: poss kindey cortical
[5]; 4 ug/kg
  Results, Subacute - full histo: No Eff @ necr/clin-path
[5]; 40 ug/kg
  Results, Subacute - full histo: No Effects
[5]; 400 ug/kg
  Results, Subacute - full histo: D14 Spleen wt slightly
[6]; 10 ug/kg
  Results, Neuropharm profile: No Effects
[6]; 100 ug/kg
  Results, Neuropharm profile: No Effects
[7]; 10 ug/kg
  Results, Diuretic Assay: No Effects
[7]; 100 ug/kg
  Results, Diuretic Assay: No Effects
[8]; 10 ug/kg
  Results, Barbit Sleep Potent: No Effects
[8]; 100 ug/kg
  Results, Barbit Sleep Potent: No Effects
[9]; 10 ug/kg, bolus
  Results, Cardiovasc Effects: No Effects
[9]; up if NOEL to 100 ug/kg
  Results, Cardiovasc Effects: No Effects
[10]
  toxic effects: no toxic effects

## CCCCCCCC/C=C\CCCCCCCC(=O)OCCOCC(OCCO)C1OCC(OCCO)C1OCCO (stereo not shown) [Tween-80]
[3]
  occupancy of the MHC molecules (proportion of the molecules complexed with peptide): 76%

## CCCCCCCCO[C@@H]1O[C@H](CO)[C@@H](O)[C@H](O)[C@H]1O [octylglucoside, octyl glucoside]
[3]
  occupancy of the MHC molecules (proportion of the molecules complexed with peptide): 40%

## Pluronic F-127
[1]
  toxicity to T-cells: toxic to T-cells
